Experimental findings from patent US20090136570A1, “Taste-Masked Tablets and Granules” (priority 2006, published 2009) are described below.

A short description of the data set: Hygroscopicity, VTI vapor sorption analyzer. The data set is classed as physicochemical. How it is done: Hygroscopicity data was obtained on a VTI Symmetrical Vapor Sorption Analyzer Model SGA-1. Data was collected at room temperature from 5-95% relative humidity and back, 5% relative humidity change per step. Equilibrium conditions were 0.01 weight percent change in 5 minutes with a maximum equilibration time of 180 minutes. […] When equilibrated back down to 5% RH, the material returned back to approximately its dry weight.

Take `Cc1nnc(C(=O)NC(C)(C)c2nc(C(=O)NCc3ccc(F)cc3)c(O)c(=O)n2C)o1`: under “95% RH at 25° C.”, the “weight increase when equilibrated at 95% RH” value worked out at 1.8%. Further, the “XRPD analysis of the material after the hygroscopicity experiment (phase stability)” value (after 5-95% relative humidity cycle at room temperature) is listed as “had not changed phases”.
